± gives the expanded uncertainty stated by the source.
Assay: wn = mass fraction of the nth substance listed
Conditions: 100 kPa, Liquid, Vibrating tube method, w1 = 0.5821

Molecule `[Cl-].[Cl-].[Zn+2]` [zinc chloride] + O has a mass density (288.15 K) of 1702.7 ± 6.9 kg/m3, a mass density (298.15 K) of 1692.5 ± 6.9 kg/m3 and a mass density (323.15 K) of 1666.6 ± 6.7 kg/m3.

Source: the NIST ThermoML archive (doi:10.1021/acs.jced.6b00048)
